Where two headings read alike, the source gives them in different places.
How the values were obtained:
[1] = test system: muscular relaxation induced by rocuronium bromide; test: Reversal of rocuronium bromide induced muscular relaxation in anaesthetised Guinea pigs (TOF-Watch SX monitor); assay type: in vivo, Guinea pig
Description: After pentobarbital sodium anesthesia in the abdominal cavity, the Guinea pigs are fixed on rat boards and connected to small animal ventilators after endotracheal intubation. Stimulating electrodes of a muscular relaxation monitor, TOF-Watch SX, are respectively connected to left post-femur and post-tibialis subcutis of the Guinea pig. Self-made tools are used to fix the left tibialis on a small platform while permitting the left hind paw to be able to move freely. A sensor is fixed on a palm surface of a left hind leg of the Guinea pig and a probe of skin temperature is fixed on a palm surface of a left front leg of the Guinea pig.

[2] = test system: small mice; conditions: according to reports; cited from earlier work
[3] = test system: small mice; test: Toxic reactions after intravenous tail injection in male small mice; conditions: intravenous injection at the tail, 200 mg/ml, 4000 mg/kg
Description: (§1) Male small mice are processed with intravenous injection with compounds of the present invention at the tails.

[4] = test system: small mice; conditions: mouse, in vivo, iv, 4000 mg/kg
Description: as §1

[5] = Guinea pig, compound 2 mg/kg given when TOFR disappears and T1 decreases more than 80%, after i.v. rocuronium bromide (twice ED90 dose)
[6] = guinea pig, in vivo, iv, 2 mg/kg

6-per-deoxy-6-per-(N-ethyl-D-cysteine)thioether-β-cyclodextrin [CD-28]
T1 recovering to 25%/time [1, 5]: 8.25 min
T1 recovering to 50%/time [1, 5]: 12.25 min
T1 recovering to 75%/time [1, 5]: 15.00 min
TOF recovering to 50%/time [1, 5]: 12.75 min
TOF recovering to 75%/time [1, 5]: 16.25 min

6-per-deoxy-6-per-(N-ethyl-D-cysteine)thioether-β-cyclodextrin sodium salt [CD-29]
T1 recovering to 25%/time [1, 6]: 6.75 min
T1 recovering to 50%/time [1, 6]: 8.50 min
T1 recovering to 75%/time [1, 6]: 9.25 min
TOF recovering to 50%/time [1, 6]: 6.50 min
TOF recovering to 75%/time [1, 6]: 8.25 min

6-per-deoxy-6-per-(N-methyl-D-cysteine)thioether-β-cyclodextrin [CD-26]
T1 recovering to 25%/time [1, 5]: 7.75 min
T1 recovering to 50%/time [1, 5]: 12.25 min
T1 recovering to 75%/time [1, 5]: 16.00 min
TOF recovering to 50%/time [1, 5]: 8.00 min
TOF recovering to 75%/time [1, 5]: 11.75 min

6-per-deoxy-6-per-(N-methyl-D-cysteine)thioether-β-cyclodextrin sodium salt [CD-27]
T1 recovering to 25%/time [1, 6]: 8.25 min
T1 recovering to 50%/time [1, 6]: 11.25 min
T1 recovering to 75%/time [1, 6]: 16.00 min
TOF recovering to 50%/time [1, 6]: 8.25 min
TOF recovering to 75%/time [1, 6]: 10.75 min

6-per-deoxy-6-per-(α-L-glycine ethyl)thioether-γ-cyclodextrin [CD-16]
T1 recovering to 25%/time [1, 6]: 2.25 min
T1 recovering to 50%/time [1, 6]: 3.50 min
T1 recovering to 75%/time [1, 6]: 8.50 min
TOF recovering to 50%/time [1, 6]: 3.50 min
TOF recovering to 75%/time [1, 6]: 5.75 min

6-per-deoxy-6-per-(α-L-glycine methyl)sulfinyl-γ-cyclodextrin [CD-5]
T1 recovering to 25%/time [1, 6]: 3.50 min
T1 recovering to 50%/time [1, 6]: 4.25 min
T1 recovering to 75%/time [1, 6]: 8.25 min
TOF recovering to 50%/time [1, 6]: 4.75 min
TOF recovering to 75%/time [1, 6]: 7.25 min

O=C(O)CCSC[C@H]1O[C@@H]2O[C@H]3[C@H](O)[C@@H](O)[C@@H](O[C@H]4[C@H](O)[C@@H](O)[C@@H](O[C@H]5[C@H](O)[C@@H](O)[C@@H](O[C@H]6[C@H](O)[C@@H](O)[C@@H](O[C@H]7[C@H](O)[C@@H](O)[C@@H](O[C@H]8[C@H](O)[C@@H](O)[C@@H](O[C@H]9[C@H](O)[C@@H](O)[C@@H](O[C@H]1[C@H](O)[C@H]2O)O[C@@H]9CSCCC(=O)O)O[C@@H]8CSCCC(=O)O)O[C@@H]7CSCCC(=O)O)O[C@@H]6CSCCC(=O)O)O[C@@H]5CSCCC(=O)O)O[C@@H]4CSCCC(=O)O)O[C@@H]3CSCCC(=O)O [Bridion, sugammadex]
maximal safe dose [2]: 2000 mg/kg

N[C@@H](CSC[C@H]1O[C@@H]2O[C@H]3[C@H](O)[C@@H](O)[C@@H](O[C@H]4[C@H](O)[C@@H](O)[C@@H](O[C@H]5[C@H](O)[C@@H](O)[C@@H](O[C@H]6[C@H](O)[C@@H](O)[C@@H](O[C@H]7[C@H](O)[C@@H](O)[C@@H](O[C@H]8[C@H](O)[C@@H](O)[C@@H](O[C@H]9[C@H](O)[C@@H](O)[C@@H](O[C@H]1[C@H](O)[C@H]2O)O[C@@H]9CSC[C@H](N)C(=O)[O-])O[C@@H]8CSC[C@H](N)C(=O)[O-])O[C@@H]7CSC[C@H](N)C(=O)[O-])O[C@@H]6CSC[C@H](N)C(=O)[O-])O[C@@H]5CSC[C@H](N)C(=O)[O-])O[C@@H]4CSC[C@H](N)C(=O)[O-])O[C@@H]3CSC[C@H](N)C(=O)[O-])C(=O)[O-].[Na+].[Na+].[Na+].[Na+].[Na+].[Na+].[Na+].[Na+] [CD-7, 6-per-deoxy-6-per-(α-L-glycinemethyl)thioether-γ-cyclodextrin sodium salt]
T1 recovering to 25%/time [1, 6]: 1.25 min
T1 recovering to 50%/time [1, 6]: 1.50 min
T1 recovering to 75%/time [1, 6]: 2.75 min
TOF recovering to 50%/time [1, 6]: 1.25 min
TOF recovering to 75%/time [1, 6]: 1.50 min
result description (toxic reactions) [3]: normal

CC(=O)NC(CSC[C@H]1O[C@@H]2O[C@H]3[C@H](O)[C@@H](O)[C@@H](O[C@H]4[C@H](O)[C@@H](O)[C@@H](O[C@H]5[C@H](O)[C@@H](O)[C@@H](O[C@H]6[C@H](O)[C@@H](O)[C@@H](O[C@H]7[C@H](O)[C@@H](O)[C@@H](O[C@H]8[C@H](O)[C@@H](O)[C@@H](O[C@H]9[C@H](O)[C@@H](O)[C@@H](O[C@H]1[C@H](O)[C@H]2O)O[C@@H]9CSCC(NC(C)=O)C(=O)O)O[C@@H]8CSCC(NC(C)=O)C(=O)O)O[C@@H]7CSCC(NC(C)=O)C(=O)O)O[C@@H]6CSCC(NC(C)=O)C(=O)O)O[C@@H]5CSCC(NC(C)=O)C(=O)O)O[C@@H]4CSCC(NC(C)=O)C(=O)O)O[C@@H]3CSCC(NC(C)=O)C(=O)O)C(=O)O (stereo partly drawn) [CD-8, 6-per-deoxy-6-per-(N-acetylglycinemethyl)thioether-γ-cyclodextrin]
T1 recovering to 50%/time [1, 6]: 2.75 min
T1 recovering to 75%/time [1, 6]: 4.25 min
TOF recovering to 50%/time [1, 6]: 2.50 min
TOF recovering to 75%/time [1, 6]: 3.50 min

CC(=O)NC(CSC[C@H]1O[C@@H]2O[C@H]3[C@H](O)[C@@H](O)[C@@H](O[C@H]4[C@H](O)[C@@H](O)[C@@H](O[C@H]5[C@H](O)[C@@H](O)[C@@H](O[C@H]6[C@H](O)[C@@H](O)[C@@H](O[C@H]7[C@H](O)[C@@H](O)[C@@H](O[C@H]8[C@H](O)[C@@H](O)[C@@H](O[C@H]9[C@H](O)[C@@H](O)[C@@H](O[C@H]1[C@H](O)[C@H]2O)O[C@@H]9CSCC(NC(C)=O)C(=O)[O-])O[C@@H]8CSCC(NC(C)=O)C(=O)[O-])O[C@@H]7CSCC(NC(C)=O)C(=O)[O-])O[C@@H]6CSCC(NC(C)=O)C(=O)[O-])O[C@@H]5CSCC(NC(C)=O)C(=O)[O-])O[C@@H]4CSCC(NC(C)=O)C(=O)[O-])O[C@@H]3CSCC(NC(C)=O)C(=O)[O-])C(=O)[O-].[Na+].[Na+].[Na+].[Na+].[Na+].[Na+].[Na+].[Na+] (stereo partly drawn) [CD-9, 6-per-deoxy-6-per-(N-acetylglycinemethyl)thioether-γ-cyclodextrin sodium salt]
T1 recovering to 25%/time [1, 6]: 1.25 min
T1 recovering to 50%/time [1, 6]: 1.75 min
TOF recovering to 50%/time [1, 6]: 1.50 min
TOF recovering to 75%/time [1, 6]: 3.25 min
result description (toxic reactions) [3]: normal

N[C@@H](CCSC[C@H]1O[C@@H]2O[C@H]3[C@H](O)[C@@H](O)[C@@H](O[C@H]4[C@H](O)[C@@H](O)[C@@H](O[C@H]5[C@H](O)[C@@H](O)[C@@H](O[C@H]6[C@H](O)[C@@H](O)[C@@H](O[C@H]7[C@H](O)[C@@H](O)[C@@H](O[C@H]8[C@H](O)[C@@H](O)[C@@H](O[C@H]9[C@H](O)[C@@H](O)[C@@H](O[C@H]1[C@H](O)[C@H]2O)O[C@@H]9CSCC[C@H](N)C(=O)[O-])O[C@@H]8CSCC[C@H](N)C(=O)[O-])O[C@@H]7CSCC[C@H](N)C(=O)[O-])O[C@@H]6CSCC[C@H](N)C(=O)[O-])O[C@@H]5CSCC[C@H](N)C(=O)[O-])O[C@@H]4CSCC[C@H](N)C(=O)[O-])O[C@@H]3CSCC[C@H](N)C(=O)[O-])C(=O)[O-].[Na+].[Na+].[Na+].[Na+].[Na+].[Na+].[Na+].[Na+] [CD-17, 6-per-deoxy-6-per-(α-L-amino acid ethyl)thioether-γ-cyclodextrin sodium salt]
T1 recovering to 25%/time [1, 5]: 3.00 min
T1 recovering to 50%/time [1, 5]: 5.25 min
T1 recovering to 75%/time [1, 5]: 7.75 min
TOF recovering to 50%/time [1, 5]: 3.00 min
TOF recovering to 75%/time [1, 5]: 6.25 min
result description (toxic reactions) [3]: normal

CC(C)(SC[C@H]1O[C@@H]2O[C@H]3[C@H](O)[C@@H](O)[C@@H](O[C@H]4[C@H](O)[C@@H](O)[C@@H](O[C@H]5[C@H](O)[C@@H](O)[C@@H](O[C@H]6[C@H](O)[C@@H](O)[C@@H](O[C@H]7[C@H](O)[C@@H](O)[C@@H](O[C@H]8[C@H](O)[C@@H](O)[C@@H](O[C@H]9[C@H](O)[C@@H](O)[C@@H](O[C@H]1[C@H](O)[C@H]2O)O[C@@H]9CSC(C)(C)[C@@H](N)C(=O)[O-])O[C@@H]8CSC(C)(C)[C@@H](N)C(=O)[O-])O[C@@H]7CSC(C)(C)[C@@H](N)C(=O)[O-])O[C@@H]6CSC(C)(C)[C@@H](N)C(=O)[O-])O[C@@H]5CSC(C)(C)[C@@H](N)C(=O)[O-])O[C@@H]4CSC(C)(C)[C@@H](N)C(=O)[O-])O[C@@H]3CSC(C)(C)[C@@H](N)C(=O)[O-])[C@@H](N)C(=O)[O-].[Na+].[Na+].[Na+].[Na+].[Na+].[Na+].[Na+].[Na+] [CD-20, 6-per-deoxy-6-per-(α-D-amino acid dimethyl)sulfinyl-γ-cyclodextrin sodium salt]
result description (toxic reactions) [4]: normal

N[C@H](CSC[C@H]1O[C@@H]2O[C@H]3[C@H](O)[C@@H](O)[C@@H](O[C@H]4[C@H](O)[C@@H](O)[C@@H](O[C@H]5[C@H](O)[C@@H](O)[C@@H](O[C@H]6[C@H](O)[C@@H](O)[C@@H](O[C@H]7[C@H](O)[C@@H](O)[C@@H](O[C@H]8[C@H](O)[C@@H](O)[C@@H](O[C@H]1[C@H](O)[C@H]2O)O[C@@H]8CSC[C@@H](N)C(=O)[O-])O[C@@H]7CSC[C@@H](N)C(=O)[O-])O[C@@H]6CSC[C@@H](N)C(=O)[O-])O[C@@H]5CSC[C@@H](N)C(=O)[O-])O[C@@H]4CSC[C@@H](N)C(=O)[O-])O[C@@H]3CSC[C@@H](N)C(=O)[O-])C(=O)[O-].[Na+].[Na+].[Na+].[Na+].[Na+].[Na+].[Na+] [CD-25, 6-per-deoxy-6-per-(α-D-glycinemethyl)thioether-β-cyclodextrin sodium salt]
result description (toxic reactions) [3]: normal
